# PubChem BioAssay AID192 (DTP/NCI, 2004)
# Values joined by “and” are separate entries in the source; they are usually repeats but may differ in a detail not shown here. Identical values can stand only once. Inconclusive results and toxic doses are left out.
# Tested on: BDF1 mice, B16 melanoma ip, median survival T/C
# Assay: NCI In Vivo Anticancer Drug Screen. Data for tumor model B16 Melanoma (intraperitoneal) in B6D2F1 (BDF1) mice
# Details: endpoint: median survival time, higher = longer survival
# Procedure: The antitumor activity of compounds was measured in mice bearing transplantable tumors. Survival or tumor size were measured and the results are expressed as the measurement made in the treated group (T) divided by the measurement made in the vehicle treated control group (C). The tumor model used in this assay is B16 Melanoma (intraperitoneal) in B6D2F1 (BDF1) mice
# [1] = dose: 6.25 mg/kg/injection, schedule: Q01DX009 (ip), vehicle: saline with Tween-80
# [2] = dose: 12.5 mg/kg/injection, schedule: Q01DX009 (ip), vehicle: saline with Tween-80
# [3] = dose: 25.0 mg/kg/injection, schedule: Q01DX009 (ip), vehicle: saline with Tween-80
# [4] = dose: 100.0 mg/kg/injection, schedule: Q01DX009 (ip), vehicle: Klucel (hydroxypropylcellulose) (HPC)
structure (smiles),measurement,setting,value
CC(=N\O)/C(C)=N/O.CC(=N\O)/C(C)=N/O.[Pd],T/C,"dose: 0.75 mg/kg/injection, schedule: Q01DX009 (ip), vehicle: Klucel (hydroxypropylcellulose) (HPC)",96 % of control
same,T/C,"dose: 1.57 mg/kg/injection, schedule: Q01DX009 (ip), vehicle: Klucel (hydroxypropylcellulose) (HPC)",95 % of control
same,T/C,"dose: 3.13 mg/kg/injection, schedule: Q01DX009 (ip), vehicle: Klucel (hydroxypropylcellulose) (HPC)",96 % of control
same,T/C,"dose: 6.25 mg/kg/injection, schedule: Q01DX009 (ip), vehicle: Klucel (hydroxypropylcellulose) (HPC)",94 % of control
C=C1C(=O)C23[C@H](O)C1CC[C@H]2[C@]12COC3(O)[C@@H](O)[C@@H]1C(C)(C)CC[C@@H]2O,T/C,"dose: 1.56 mg/kg/injection, schedule: Q01DX009 (ip), vehicle: saline with Tween-80",105 % of control
same,T/C,"dose: 3.12 mg/kg/injection, schedule: Q01DX009 (ip), vehicle: saline with Tween-80",93 % of control
same,T/C,[1],96 % of control
COC(=O)C(C)CC(C)(C=O)OC (stereo not given),T/C,"dose: 100.0 mg/kg/injection, schedule: Q01DX009 (ip), vehicle: saline with Tween-80",97 % of control
same,T/C,"dose: 200.0 mg/kg/injection, schedule: Q01DX009 (ip), vehicle: saline with Tween-80",100 % of control
same,T/C,"dose: 400.0 mg/kg/injection, schedule: Q01DX009 (ip), vehicle: saline with Tween-80",90 % of control
OC(COC(c1ccccc1)(c1ccccc1)c1ccccc1)C(O)CC1SCCS1 (stereo not given),T/C,"dose: 3.13 mg/kg/injection, schedule: Q01DX009 (ip), vehicle: saline with Tween-80",107 % of control
same,T/C,[1],100 % of control
same,T/C,[2],103 % of control
same,T/C,[3],104 % of control
Cc1ccc(NC(=O)Oc2ccc(Br)cc2Br)c([N+](=O)[O-])c1,T/C,[2],97 % of control
same,T/C,[3],92 % of control
same,T/C,"dose: 50.0 mg/kg/injection, schedule: Q01DX009 (ip), vehicle: saline with Tween-80",86 % of control
CNCCOC(c1ccccc1)c1ccccc1C (stereo not given),T/C,"dose: 3.12 mg/kg/injection, schedule: Q01DX009 (ip), vehicle: saline",97 % of control
same,T/C,"dose: 6.25 mg/kg/injection, schedule: Q01DX009 (ip), vehicle: saline",97 % of control
same,T/C,"dose: 12.5 mg/kg/injection, schedule: Q01DX009 (ip), vehicle: saline",102 % of control
same,T/C,"dose: 25.0 mg/kg/injection, schedule: Q01DX009 (ip), vehicle: saline",100 % of control
same,T/C,"dose: 50.0 mg/kg/injection, schedule: Q01DX009 (ip), vehicle: saline",104 % of control
COc1cc2cc3c4cc(OC)c(OC)cc4cc[n+]3c(C)c2cc1OC,T/C,"dose: 400.0 mg/kg/injection, schedule: Q01DX009 (ip), vehicle: saline sonified",86 % of control
Cc1ccc(NC(=S)NC(Cc2ccccc2)c2ccccc2)c(C)c1 (stereo not given),T/C,"dose: 12.5 mg/kg/injection, schedule: Q01DX009 (ip), vehicle: Klucel (hydroxypropylcellulose) (HPC)",111 % of control
same,T/C,"dose: 25.0 mg/kg/injection, schedule: Q01DX009 (ip), vehicle: Klucel (hydroxypropylcellulose) (HPC)",109 % of control
same,T/C,"dose: 50.0 mg/kg/injection, schedule: Q01DX009 (ip), vehicle: Klucel (hydroxypropylcellulose) (HPC)",102 % of control
same,T/C,"dose: 75.0 mg/kg/injection, schedule: Q04DX003 (ip), vehicle: Klucel (hydroxypropylcellulose) (HPC)",94 % of control
same,T/C,[4],88 % of control
same,T/C,"dose: 150.0 mg/kg/injection, schedule: Q04DX003 (ip), vehicle: Klucel (hydroxypropylcellulose) (HPC)",94 % of control
same,T/C,"dose: 300.0 mg/kg/injection, schedule: Q04DX003 (ip), vehicle: Klucel (hydroxypropylcellulose) (HPC)",102 % of control
[Cl][Pt+2][Cl].[NH-]CC1(C[NH-])CCCC1,T/C,"dose: 0.5 mg/kg/injection, schedule: Q01DX009 (ip), vehicle: saline",124 % of control
same,T/C,"dose: 1.0 mg/kg/injection, schedule: Q01DX009 (ip), vehicle: saline",112 % of control
same,T/C,"dose: 2.0 mg/kg/injection, schedule: Q01DX009 (ip), vehicle: saline",157 % of control
OCC1OC(n2cnc3c(SCc4ccccc4)ncnc32)C(O)C1O (stereo not given),T/C,"dose: 37.5 mg/kg/injection, schedule: Q01DX009 (ip), vehicle: saline with Tween-80",121 % of control
O=Nc1c(N=O)c(N=O)c(N=O)c(N=O)c1N=O,T/C,"dose: 1.25 mg/kg/injection, schedule: Q01DX009 (ip), vehicle: saline with Tween-80",108 % of control
same,T/C,"dose: 2.5 mg/kg/injection, schedule: Q01DX009 (ip), vehicle: saline with Tween-80",105 % of control
same,T/C,"dose: 5.0 mg/kg/injection, schedule: Q01DX009 (ip), vehicle: saline with Tween-80",88 % of control and 100 % of control
same,T/C,"dose: 10.0 mg/kg/injection, schedule: Q01DX009 (ip), vehicle: saline with Tween-80",104 % of control
same,T/C,"dose: 20.0 mg/kg/injection, schedule: Q01DX009 (ip), vehicle: saline with Tween-80",87 % of control
C=CCNC(=S)Nc1cc(Cl)ccc1OC,T/C,[4],93 % of control
same,T/C,"dose: 200.0 mg/kg/injection, schedule: Q01DX009 (ip), vehicle: Klucel (hydroxypropylcellulose) (HPC)",93 % of control
same,T/C,"dose: 400.0 mg/kg/injection, schedule: Q01DX009 (ip), vehicle: Klucel (hydroxypropylcellulose) (HPC)",93 % of control
C=CC=O,T/C,"dose: 0.45 mg/kg/injection, schedule: Q01DX009 (ip), vehicle: saline",95 % of control
same,T/C,"dose: 0.9 mg/kg/injection, schedule: Q01DX009 (ip), vehicle: saline",88 % of control
same,T/C,"dose: 1.8 mg/kg/injection, schedule: Q01DX009 (ip), vehicle: saline",90 % of control
